Test results from PubChem BioAssay (NCI).
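Test compounds were applied to cells in 96-well plates for 48 hours at 5 doses. Abbreviation: GI50, concentration required for 50% inhibition of growth. The concentration for full growth arrest is given as TGI.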

Columns and labels:
Test in all cases: NCI tumour cell line growth inhibition, 48 h
786-0 renal = tested on: 786-0 renal
A498 renal = tested on: A498 renal
A549 NSCLC = tested on: A549 NSCLC
ACHN renal = tested on: ACHN renal
BT-549 breast = tested on: BT-549 breast
CAKI-1 renal = tested on: CAKI-1 renal
CCRF-CEM leukemia = tested on: CCRF-CEM leukemia
COLO 205 colon = tested on: COLO 205 colon
DU-145 prostate = tested on: DU-145 prostate
EKVX NSCLC = tested on: EKVX NSCLC
HCC-2998 colon = tested on: HCC-2998 colon
HCT-116 colon = tested on: HCT-116 colon
HCT-15 colon = tested on: HCT-15 colon
HL-60(TB) leukemia = tested on: HL-60(TB) leukemia
HOP-62 NSCLC = tested on: HOP-62 NSCLC
HOP-92 NSCLC = tested on: HOP-92 NSCLC
HS 578T breast = tested on: HS 578T breast
HT29 colon = tested on: HT29 colon
IGROV1 ovarian = tested on: IGROV1 ovarian
K-562 leukemia = tested on: K-562 leukemia
KM12 colon = tested on: KM12 colon
LOX IMVI melanoma = tested on: LOX IMVI melanoma
M14 melanoma = tested on: M14 melanoma
MALME-3M melanoma = tested on: MALME-3M melanoma
MCF7 breast = tested on: MCF7 breast
MDA-MB-231 breast = tested on: MDA-MB-231 breast
MDA-MB-435 = tested on: MDA-MB-435
MDA-MB-468 breast = tested on: MDA-MB-468 breast
MOLT-4 leukemia = tested on: MOLT-4 leukemia
NCI-H226 lung = tested on: NCI-H226 lung
NCI-H23 lung = tested on: NCI-H23 lung
NCI-H460 lung = tested on: NCI-H460 lung
NCI-H522 lung = tested on: NCI-H522 lung
NCI/ADR-RES ovarian = tested on: NCI/ADR-RES ovarian
OVCAR-3 ovarian = tested on: OVCAR-3 ovarian
OVCAR-4 ovarian = tested on: OVCAR-4 ovarian
OVCAR-5 ovarian = tested on: OVCAR-5 ovarian
OVCAR-8 ovarian = tested on: OVCAR-8 ovarian
PC-3 prostate = tested on: PC-3 prostate
RPMI-8226 leukemia = tested on: RPMI-8226 leukemia
RXF 393 renal = tested on: RXF 393 renal
SF-268 CNS = tested on: SF-268 CNS
SF-295 CNS = tested on: SF-295 CNS
SF-539 CNS = tested on: SF-539 CNS
SK-MEL-2 melanoma = tested on: SK-MEL-2 melanoma
SK-MEL-28 melanoma = tested on: SK-MEL-28 melanoma
SK-MEL-5 melanoma = tested on: SK-MEL-5 melanoma
SK-OV-3 ovarian = tested on: SK-OV-3 ovarian
SN12C renal = tested on: SN12C renal
SNB-19 CNS = tested on: SNB-19 CNS
SNB-75 CNS = tested on: SNB-75 CNS
SR leukemia = tested on: SR leukemia
SW-620 colon = tested on: SW-620 colon
T-47D breast = tested on: T-47D breast
TK-10 renal = tested on: TK-10 renal
U251 CNS = tested on: U251 CNS
UACC-257 melanoma = tested on: UACC-257 melanoma
UACC-62 melanoma = tested on: UACC-62 melanoma
UO-31 renal = tested on: UO-31 renal

Q: How did the GI50 (786-0 renal) turn out when CSc1nc(-c2cccc(C)c2)c2cc(-c3ccccc3)n(C)c2n1 was run?
A: 14.5 µM

Q: What about the TGI (786-0 renal) of the same compound?
A: 47.8 µM

Q: And the GI50 (A498 renal)?
A: 27 µM

Q: What about the TGI (A498 renal) of the same compound?
A: 94.9 µM

Q: And the GI50 (A549 NSCLC)?
A: 7.01 µM

Q: And the TGI (A549 NSCLC)?
A: > 100 µM

Q: What about the GI50 (ACHN renal) of the same compound?
A: 12.9 µM

Q: And the TGI (ACHN renal)?
A: 75.1 µM

Q: What about the GI50 (BT-549 breast) of the same compound?
A: 7.11 µM

Q: What about the TGI (BT-549 breast) of the same compound?
A: 33.5 µM

Q: And the GI50 (CAKI-1 renal)?
A: 5.08 µM

Q: What about the TGI (CAKI-1 renal) of the same compound?
A: > 100 µM

Q: What about the GI50 (CCRF-CEM leukemia) of the same compound?
A: 4 µM

Q: What about the TGI (CCRF-CEM leukemia) of the same compound?
A: 36.1 µM

Q: And the GI50 (COLO 205 colon)?
A: 7.28 µM

Q: What about the TGI (COLO 205 colon) of the same compound?
A: 26.9 µM

Q: What about the GI50 (DU-145 prostate) of the same compound?
A: 18.1 µM

Q: And the TGI (DU-145 prostate)?
A: > 100 µM

Q: And the GI50 (EKVX NSCLC)?
A: 4.88 µM

Q: And the TGI (EKVX NSCLC)?
A: 39.1 µM

Q: And the GI50 (HCC-2998 colon)?
A: 13.9 µM

Q: What about the TGI (HCC-2998 colon) of the same compound?
A: 60.8 µM

Q: What about the GI50 (HCT-116 colon) of the same compound?
A: 4.17 µM

Q: What about the TGI (HCT-116 colon) of the same compound?
A: 21.7 µM

Q: What about the GI50 (HCT-15 colon) of the same compound?
A: 4.9 µM

Q: And the TGI (HCT-15 colon)?
A: 24.8 µM

Q: And the GI50 (HL-60(TB) leukemia)?
A: 3.54 µM

Q: What about the TGI (HL-60(TB) leukemia) of the same compound?
A: 35.4 µM

Q: What about the GI50 (HOP-62 NSCLC) of the same compound?
A: 8.77 µM

Q: What about the TGI (HOP-62 NSCLC) of the same compound?
A: 48.9 µM

Q: And the GI50 (HOP-92 NSCLC)?
A: 3.92 µM

Q: And the TGI (HOP-92 NSCLC)?
A: 30.7 µM

Q: What about the GI50 (HS 578T breast) of the same compound?
A: 7 µM

Q: And the TGI (HS 578T breast)?
A: 78.1 µM

Q: And the GI50 (HT29 colon)?
A: 3.98 µM

Q: And the TGI (HT29 colon)?
A: 25.4 µM

Q: What about the GI50 (IGROV1 ovarian) of the same compound?
A: 6.43 µM

Q: What about the TGI (IGROV1 ovarian) of the same compound?
A: > 100 µM

Q: What about the GI50 (K-562 leukemia) of the same compound?
A: 3.13 µM

Q: And the TGI (K-562 leukemia)?
A: > 100 µM

Q: And the GI50 (KM12 colon)?
A: 5.41 µM

Q: What about the TGI (KM12 colon) of the same compound?
A: 64.7 µM

Q: What about the GI50 (LOX IMVI melanoma) of the same compound?
A: 5.44 µM

Q: What about the TGI (LOX IMVI melanoma) of the same compound?
A: 19.4 µM

Q: And the GI50 (M14 melanoma)?
A: 4.56 µM

Q: What about the TGI (M14 melanoma) of the same compound?
A: 51.4 µM

Q: What about the GI50 (MALME-3M melanoma) of the same compound?
A: 9.16 µM

Q: And the TGI (MALME-3M melanoma)?
A: 38.2 µM

Q: And the GI50 (MCF7 breast)?
A: 5.88 µM

Q: And the TGI (MCF7 breast)?
A: 41.8 µM

Q: And the GI50 (MDA-MB-231 breast)?
A: 7.42 µM

Q: And the TGI (MDA-MB-231 breast)?
A: 30.2 µM

Q: And the GI50 (MDA-MB-435)?
A: 2.86 µM

Q: What about the TGI (MDA-MB-435) of the same compound?
A: 8.45 µM

Q: What about the GI50 (MDA-MB-468 breast) of the same compound?
A: 3.08 µM

Q: What about the TGI (MDA-MB-468 breast) of the same compound?
A: 15.6 µM

Q: And the GI50 (MOLT-4 leukemia)?
A: 4.47 µM

Q: What about the TGI (MOLT-4 leukemia) of the same compound?
A: 37.7 µM

Q: And the GI50 (NCI-H226 lung)?
A: 12.8 µM

Q: What about the TGI (NCI-H226 lung) of the same compound?
A: 50 µM

Q: What about the GI50 (NCI-H23 lung) of the same compound?
A: 12.2 µM

Q: What about the TGI (NCI-H23 lung) of the same compound?
A: 68 µM

Q: And the GI50 (NCI-H460 lung)?
A: 3.98 µM

Q: And the TGI (NCI-H460 lung)?
A: 19.1 µM

Q: What about the GI50 (NCI-H522 lung) of the same compound?
A: 3.41 µM

Q: And the TGI (NCI-H522 lung)?
A: 17.2 µM

Q: And the GI50 (NCI/ADR-RES ovarian)?
A: 3.58 µM

Q: What about the TGI (NCI/ADR-RES ovarian) of the same compound?
A: 30.9 µM

Q: And the GI50 (OVCAR-3 ovarian)?
A: 4.31 µM

Q: And the TGI (OVCAR-3 ovarian)?
A: 30.7 µM

Q: What about the GI50 (OVCAR-4 ovarian) of the same compound?
A: 20.5 µM

Q: And the TGI (OVCAR-4 ovarian)?
A: > 100 µM

Q: What about the GI50 (OVCAR-5 ovarian) of the same compound?
A: 18.6 µM

Q: And the TGI (OVCAR-5 ovarian)?
A: > 100 µM

Q: And the GI50 (OVCAR-8 ovarian)?
A: 16.3 µM

Q: And the TGI (OVCAR-8 ovarian)?
A: > 100 µM

Q: What about the GI50 (PC-3 prostate) of the same compound?
A: 7.9 µM

Q: And the TGI (PC-3 prostate)?
A: > 100 µM

Q: And the GI50 (RPMI-8226 leukemia)?
A: 4.82 µM

Q: What about the TGI (RPMI-8226 leukemia) of the same compound?
A: 37.8 µM

Q: And the GI50 (RXF 393 renal)?
A: 7.91 µM

Q: What about the TGI (RXF 393 renal) of the same compound?
A: 47 µM

Q: And the GI50 (SF-268 CNS)?
A: 11.2 µM

Q: What about the TGI (SF-268 CNS) of the same compound?
A: 51.1 µM

Q: What about the GI50 (SF-295 CNS) of the same compound?
A: 5.06 µM

Q: What about the TGI (SF-295 CNS) of the same compound?
A: 18.2 µM

Q: And the GI50 (SF-539 CNS)?
A: 6.35 µM

Q: What about the TGI (SF-539 CNS) of the same compound?
A: 21.8 µM

Q: What about the GI50 (SK-MEL-2 melanoma) of the same compound?
A: 3.62 µM

Q: What about the TGI (SK-MEL-2 melanoma) of the same compound?
A: 17.5 µM

Q: What about the GI50 (SK-MEL-28 melanoma) of the same compound?
A: 12.2 µM

Q: What about the TGI (SK-MEL-28 melanoma) of the same compound?
A: 97.7 µM

Q: And the GI50 (SK-MEL-5 melanoma)?
A: 3.59 µM

Q: What about the TGI (SK-MEL-5 melanoma) of the same compound?
A: 12.8 µM

Q: And the GI50 (SK-OV-3 ovarian)?
A: 11.2 µM

Q: What about the TGI (SK-OV-3 ovarian) of the same compound?
A: 52.1 µM

Q: And the GI50 (SN12C renal)?
A: 10.7 µM

Q: What about the TGI (SN12C renal) of the same compound?
A: 44.7 µM

Q: And the GI50 (SNB-19 CNS)?
A: 14.6 µM

Q: And the TGI (SNB-19 CNS)?
A: 93.6 µM

Q: And the GI50 (SNB-75 CNS)?
A: 3.17 µM

Q: And the TGI (SNB-75 CNS)?
A: 27.4 µM

Q: And the GI50 (SR leukemia)?
A: 3.17 µM

Q: What about the TGI (SR leukemia) of the same compound?
A: > 100 µM

Q: And the GI50 (SW-620 colon)?
A: 4.87 µM

Q: And the TGI (SW-620 colon)?
A: > 100 µM

Q: And the GI50 (T-47D breast)?
A: 4.59 µM

Q: And the TGI (T-47D breast)?
A: 41.3 µM

Q: What about the GI50 (TK-10 renal) of the same compound?
A: 28.8 µM

Q: And the TGI (TK-10 renal)?
A: 91.9 µM

Q: And the GI50 (U251 CNS)?
A: 4.65 µM

Q: And the TGI (U251 CNS)?
A: 33.8 µM

Q: And the GI50 (UACC-257 melanoma)?
A: 16.7 µM

Q: What about the TGI (UACC-257 melanoma) of the same compound?
A: 50.4 µM

Q: And the GI50 (UACC-62 melanoma)?
A: 3.99 µM

Q: And the TGI (UACC-62 melanoma)?
A: 17.9 µM

Q: And the GI50 (UO-31 renal)?
A: 6.78 µM

Q: And the TGI (UO-31 renal)?
A: 67 µM
